Source: patent publication US20160120854A1, “PHARMACEUTICAL COMPOSITIONS” (BAYER PHARMA AKTIENGESELl SCHAFT, priority 2013, published 2016)
Values after ≈ are worked out from the molar mass of the structure shown.

Key:
Format in all cases: physicochemical
[1] = Stability in PEG6000 melt; details: 20% drug load, minimally two months, room temperature
Protocol: Nine parts of PEG6000 were melted in an aluminium cup (70° to 90° C.). One part of (2R)-2-(4-fluorophenyl)-N-[4-(2-{[2-methoxy-4-(methylsulfonyl)phenyl]-amino}[1,2,4]triazolo[1,5-a]pyridin-6-yl)phenyl]propanamide was added to the PEG 6000 melt. The mixture was stirred with a glass stick at approximately 90° C. After complete dissolution of (2R)-2-(4-fluorophenyl)-N-[4-(2-{[2-methoxy-4-(methylsulfonyl)phenyl]amino}[1,2,4]triazolo[1,5-a]pyridin-6-yl)phenyl]propanamide, the melt was cooled down by embedding the cup in a ice-water/NaCl mixture for several minutes. The solidified melt was pestled. (2R)-2-(4-fluorophenyl)-N-[4-(2-{[2-methoxy-4-(methylsulfonyl)phenyl]-amino}[1,2,4]triazolo[1,5-a]pyridin-6-yl)phenyl]propanamide is stable in PEG6000 melt with 20% drug load for minimally two months at room temperature.

[2] = Solubility in PEG400 based vehicles
[3] = Nine months stability study in PEG400 based LSF; details: nine months at 25 and 40° C.

- stability in PEG6000 melt [1]: stable
- solubility ([2]; aqueous with cosolvent or surfactant or cyclodextrin, in PEG400/PVP/water 8:1:1): ~25 mg/mL (≈ 44.7 mM)
- solubility ([2]; organic solvent or mixture, in PEG400/PVP 8:2): ~25 mg/mL (≈ 44.7 mM)
- solubility ([2]; organic solvent or mixture, in PEG400 based LSF (PEG400/Tween 80/L-Menthol 97:2, 5:0, 5)): ~25 mg/mL (≈ 44.7 mM)
SMILES: COc1cc(S(C)(=O)=O)ccc1Nc1nc2ccc(-c3ccc(NC(=O)[C@H](C)c4ccc(F)cc4)cc3)cn2n1 [compound A, (2R)-2-(4-fluorophenyl)-N-[4-(2-{[2-methoxy-4-(methylsulfonyl)phenyl]-amino}[1,2,4]triazolo[1,5-a]pyridin-6-yl)phenyl]propanamide]
- stability in PEG400 based LSF [3]: no significant time dependant instability
